Results on 14 compounds are retold here after ChEMBL document CHEMBL3046310, “Synthesis and antimicrobial screening of novel series of imidazo-[1,2-a]pyridine derivatives” (2012).

≈ marks a conversion by molar mass, not a printed value.

A word on the MIC: it is the least concentration at which growth counts as inhibited. A low value points to greater potency.

What all share (format): functional
The subject of one assay is Aspergillus clavatus. Briefly: Antimicrobial activity against Aspergillus clavatus MTCC 1323 after 72 hr by serial broth dilution method. The settings on record: MTCC 1323, 72 h.
A further assay concerns Aspergillus niger. Briefly: Antimicrobial activity against Aspergillus niger MTCC 282 after 72 hr by serial broth dilution method. The settings on record: MTCC 282, 72 h. In general terms: Dilution methods test growth across graded concentrations, often in twofold steps.
In a further assay the test system is Candida albicans. Briefly: Antimicrobial activity against Candida albicans MTCC 227 after 72 hr by serial broth dilution method. The settings on record: MTCC 227, 72 h.
The subject of the next assay is Streptococcus pyogenes. Briefly: Antimicrobial activity against Streptococcus pyogenes MTCC 442 after 24 hr by serial broth dilution method. The note with it: MTCC 442, 24 h.
Another assay concerns Staphylococcus aureus. In words: Antimicrobial activity against Staphylococcus aureus MTCC 96 after 24 hr by serial broth dilution method. The settings on record: MTCC 96, 24 h.
The test system of the next assay is Pseudomonas aeruginosa. Briefly: Antimicrobial activity against Pseudomonas aeruginosa MTCC 1688 after 24 hr by serial broth dilution method. The settings on record: MTCC 1688, 24 h.
The subject of another assay is Escherichia coli. In words: Antimicrobial activity against Escherichia coli MTCC 443 after 24 hr by serial broth dilution method. The settings on record: MTCC 443, 24 h.

Consider `Cc1ccn2c(CN(C)C)c(-c3ccc(O)c([N+](=O)[O-])c3)nc2c1`, for which the MIC against Aspergillus clavatus was determined as 1000 µg/mL (≈ 3060 µM); against Aspergillus niger, 1000 µg/mL (≈ 3060 µM); against Candida albicans it was 1000 µg/mL (≈ 3060 µM); against Streptococcus pyogenes, 1000 µg/mL (≈ 3060 µM); with Staphylococcus aureus, 500 µg/mL (≈ 1530 µM); against Pseudomonas aeruginosa, 250 µg/mL (≈ 766 µM). In the assay on Escherichia coli, 500 µg/mL (≈ 1530 µM) was the least that counted as inhibitory (MIC).

For the compound `Cc1ccn2c(CN(C)C)c(-c3ccc(F)cc3F)nc2c1`, the MIC against Aspergillus clavatus was 100 µg/mL (≈ 332 µM); against Aspergillus niger it was 50 µg/mL (≈ 166 µM); with Candida albicans, 500 µg/mL (≈ 1660 µM); against Streptococcus pyogenes it was 250 µg/mL (≈ 830 µM); in the assay on Staphylococcus aureus, 50 µg/mL (≈ 166 µM); with Pseudomonas aeruginosa, 50 µg/mL (≈ 166 µM). Also, in the assay on Escherichia coli, inhibition of growth (MIC) required 100 µg/mL (≈ 332 µM).

In the case of `Cc1ccn2c(CN(C)C)c(-c3cc([N+](=O)[O-])c(O)cc3O)nc2c1`, the minimal inhibitory concentration (MIC) against Aspergillus clavatus was 500 µg/mL (≈ 1460 µM); with Aspergillus niger it was 500 µg/mL (≈ 1460 µM); against Candida albicans, 500 µg/mL (≈ 1460 µM); in the assay on Streptococcus pyogenes, 250 µg/mL (≈ 730 µM); against Staphylococcus aureus it was 500 µg/mL (≈ 1460 µM); against Pseudomonas aeruginosa, 250 µg/mL (≈ 730 µM). The MIC against Escherichia coli stood at 500 µg/mL (≈ 1460 µM).

For the compound `Cc1ccn2c(CN(C)C)c(-c3ccc(O)cc3O)nc2c1`, the MIC turned out to be 1000 µg/mL (≈ 3360 µM) in the assay with Aspergillus clavatus; 1000 µg/mL (≈ 3360 µM) against Aspergillus niger; 1000 µg/mL (≈ 3360 µM) in the assay on Candida albicans; 250 µg/mL (≈ 841 µM) in the assay on Streptococcus pyogenes; 500 µg/mL (≈ 1680 µM) against Staphylococcus aureus; 500 µg/mL (≈ 1680 µM) against Pseudomonas aeruginosa. The compound further registered an MIC against Escherichia coli of 500 µg/mL (≈ 1680 µM).

For `Cc1ccn2c(CN(C)C)c(-c3cccc(Cl)c3)nc2c1`, the minimum inhibitory concentration (MIC) with Aspergillus clavatus was found to be 100 µg/mL (≈ 334 µM); in the assay with Aspergillus niger, 100 µg/mL (≈ 334 µM); in the assay on Candida albicans, 250 µg/mL (≈ 834 µM); against Streptococcus pyogenes, 500 µg/mL (≈ 1670 µM); against Staphylococcus aureus, 100 µg/mL (≈ 334 µM); against Pseudomonas aeruginosa, 50 µg/mL (≈ 167 µM). The same compound returned an MIC in the assay on Escherichia coli of 100 µg/mL (≈ 334 µM).

As for `Cc1ccn2c(CN(C)C)c(-c3cccc(F)c3F)nc2c1`, the MIC turned out to be 250 µg/mL (≈ 830 µM) in the assay on Aspergillus clavatus; 250 µg/mL (≈ 830 µM) in the assay on Aspergillus niger; 125 µg/mL (≈ 415 µM) against Candida albicans; 500 µg/mL (≈ 1660 µM) in the assay with Streptococcus pyogenes; 500 µg/mL (≈ 1660 µM) against Staphylococcus aureus; 250 µg/mL (≈ 830 µM) against Pseudomonas aeruginosa. The compound further displayed an MIC against Escherichia coli of 50 µg/mL (≈ 166 µM).

Consider `CC1(C)S[C@@H]2[C@H](NC(=O)[C@H](N)c3ccccc3)C(=O)N2[C@H]1C(=O)O` [AMPICILLIN], for which the MIC in the assay on Streptococcus pyogenes was 100 µg/mL (≈ 286 µM); in the assay on Staphylococcus aureus, 250 µg/mL (≈ 715 µM); with Pseudomonas aeruginosa, 100 µg/mL (≈ 286 µM); with Escherichia coli it was 100 µg/mL (≈ 286 µM).

Consider `Cc1ccn2c(CN(C)C)c(-c3ccc(F)c(Cl)c3)nc2c1`, for which the MIC in the assay on Aspergillus clavatus turned out to be 1000 µg/mL (≈ 3150 µM); against Aspergillus niger, 1000 µg/mL (≈ 3150 µM); against Candida albicans, 250 µg/mL (≈ 787 µM); in the assay with Streptococcus pyogenes, 50 µg/mL (≈ 157 µM); in the assay on Staphylococcus aureus, 50 µg/mL (≈ 157 µM); against Pseudomonas aeruginosa it was 100 µg/mL (≈ 315 µM). This compound also yielded a minimum inhibitory concentration (MIC) in the assay on Escherichia coli of 50 µg/mL (≈ 157 µM).

Consider `Cc1ccn2c(CN(C)C)c(-c3ccc([N+](=O)[O-])cc3Br)nc2c1`, for which the MIC in the assay with Aspergillus clavatus came out at 500 µg/mL (≈ 1280 µM); against Aspergillus niger, 500 µg/mL (≈ 1280 µM); in the assay with Candida albicans, 1000 µg/mL (≈ 2570 µM); with Streptococcus pyogenes, 100 µg/mL (≈ 257 µM); against Staphylococcus aureus, 500 µg/mL (≈ 1280 µM); in the assay on Pseudomonas aeruginosa, 100 µg/mL (≈ 257 µM). The compound also came in with an MIC against Escherichia coli of 100 µg/mL (≈ 257 µM).

In the case of `Cc1ccn2c(CN(C)C)c(-c3ccccc3O)nc2c1`, the minimum inhibitory concentration (MIC) against Aspergillus clavatus worked out at 1000 µg/mL (≈ 3550 µM); against Aspergillus niger, 1000 µg/mL (≈ 3550 µM); in the assay with Candida albicans, 1000 µg/mL (≈ 3550 µM); in the assay on Streptococcus pyogenes, 500 µg/mL (≈ 1780 µM); with Staphylococcus aureus it was 500 µg/mL (≈ 1780 µM); with Pseudomonas aeruginosa it was 500 µg/mL (≈ 1780 µM). Further, the MIC against Escherichia coli turned out to be 500 µg/mL (≈ 1780 µM).

As to `Cc1ccn2c(CN(C)C)c(-c3ccccc3Br)nc2c1`, the MIC was 100 µg/mL (≈ 290 µM) against Aspergillus clavatus; 50 µg/mL (≈ 145 µM) against Aspergillus niger; 500 µg/mL (≈ 1450 µM) against Candida albicans; 250 µg/mL (≈ 726 µM) in the assay with Streptococcus pyogenes; 500 µg/mL (≈ 1450 µM) with Staphylococcus aureus; 100 µg/mL (≈ 290 µM) in the assay with Pseudomonas aeruginosa. The compound further displayed an MIC with Escherichia coli of 100 µg/mL (≈ 290 µM).

With `Cc1ccn2c(CN(C)C)c(-c3c(F)cccc3F)nc2c1`, the MIC in the assay with Aspergillus clavatus turned out to be 500 µg/mL (≈ 1660 µM); in the assay on Aspergillus niger, 100 µg/mL (≈ 332 µM); with Candida albicans, 1000 µg/mL (≈ 3320 µM); with Streptococcus pyogenes, 100 µg/mL (≈ 332 µM); against Staphylococcus aureus it was 250 µg/mL (≈ 830 µM); against Pseudomonas aeruginosa, 25 µg/mL (≈ 83 µM). In the assay on Escherichia coli, the lowest concentration to inhibit growth (MIC) was 25 µg/mL (≈ 83 µM).

In the case of `COC1=CC(=O)C[C@@H](C)[C@]12Oc1c(Cl)c(OC)cc(OC)c1C2=O` [GRISEOFULVIN], the figures for the minimum inhibitory concentration (MIC) against Aspergillus clavatus, in the assay with Aspergillus niger and in the assay on Candida albicans were 100 µg/mL (≈ 283 µM), 100 µg/mL (≈ 283 µM) and 500 µg/mL (≈ 1420 µM), respectively.

Take `Cc1ccn2c(CN(C)C)c(-c3cccc(Br)c3F)nc2c1`: the MIC came to 25 µg/mL (≈ 69 µM) with Aspergillus clavatus; 100 µg/mL (≈ 276 µM) in the assay on Aspergillus niger; 1000 µg/mL (≈ 2760 µM) in the assay on Candida albicans; 25 µg/mL (≈ 69 µM) with Streptococcus pyogenes; 250 µg/mL (≈ 690 µM) in the assay on Staphylococcus aureus; 500 µg/mL (≈ 1380 µM) in the assay with Pseudomonas aeruginosa. Also, the MIC in the assay with Escherichia coli amounted to 500 µg/mL (≈ 1380 µM).
